Experimental data: patent publication US20240239792A1, “MODULATORS OF BCL-2 OR BCL-2/BCL-XL AND USES THEREOF” (APPICINE THERAPEUTICS (HK) LIMITED, priority 2021, published 2024)

Experiments:
[1] = target: T1, BCL-2 (Homo sapiens, UniProt P10415); experiment: HTRF BCL-2/BAK assay (Cisbio); assay type: binding; details: recombinant human Tag1-BCL-2 2 nM, Tag2-BAK 10 nM
T1 construct: purchased Cisbio 63ADK000CB01PEG
Procedure: Then the pre-mixed anti-Tag1-Eu^3+ and anti-tag2-XL665 were added to the plate and further incubated at room temperature for another 2 hours. The signals ([…]) were read on Envision 2104 instrument. The IC50 for each compound was derived from fitting the signal of 665/615 nM to the increasing compound concentration.
Using the above assays, the following compounds were tested.

[2] = test system: DOHH2 cells; experiment: CellTiter-Glo cell proliferation assay, DOHH2 cells; assay type: cell-based; details: Homo sapiens, DOHH-2, 72 hours
Procedure: The CellTiter-Glo® Luminescent Cell Viability Assay (Promega, G7573) was used to study the cellular potency of disclosed compounds herein. The cells were harvested during the logarithmic growth period and counted with hemocytometer. The DOHH2 cells were seeded at 1.6*10^4 in 90 ul DMEM medium supplemented with 10% fetal bovine serum (FBS) (as RS4;11 cells were seeded at 4000 in 90 ul RPMI-1640 medium with 10% FBS) per well in 96-well plates and treated with 10 ul of a serial dilution of compounds disclosed herein (maximum concentration and dilution ratio determined by the results of pre-experiment may vary) for 72 hours in a 5% CO2 incubator at 37° C. Cell viability was assessed according to the manufacturer's recommendations. After the plates return to the room temperature, 100 ul of CellTiter-Glo® reagent was added to 100 ul of cell culture. The mixture was agitated on an orbital shaker for 2 minutes or placed it at room temperature for 10 minutes to allow cell lysis and stabilization of luminescent signals. Luminescent signals were recorded using Envision 2104 instrument. And GI50 values were then calculated.

T1 sequence (P10415 whole entry): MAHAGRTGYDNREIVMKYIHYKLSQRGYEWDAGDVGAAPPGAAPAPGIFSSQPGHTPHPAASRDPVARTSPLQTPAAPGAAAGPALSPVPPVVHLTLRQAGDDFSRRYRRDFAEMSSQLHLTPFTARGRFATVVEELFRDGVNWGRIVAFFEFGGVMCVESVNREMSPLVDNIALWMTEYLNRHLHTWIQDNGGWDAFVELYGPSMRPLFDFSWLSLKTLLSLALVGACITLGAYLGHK

Row | SMILES | IC50 [1] [nM] | GI50 [2] [nM]
1 | CS(=O)(=O)N1CCc2ccccc2C(N2CCN(c3ccc(C(=O)NS(=O)(=O)c4ccc(NCC5CCOCC5)c([N+](=O)[O-])c4)c(Oc4cnc5[nH]ccc5c4)c3)CC2)C1 (centres unmarked) [Compound 60, 2-((1H-pyrrolo[2,3-b]pyridin-5-yl)oxy)-4-(4-(3-(methylsulfonyl)-2,3,4,5-tetrahydro-1H-benzo[d]azepin-1-yl)piperazin-1-yl)-N-((3-nitro-4-(((tetrahydro-2H-pyran-4-yl)methyl)amino)phenyl)sulfonyl)benzamide] | < 20 | > 5000
2 | O=C(NS(=O)(=O)c1ccc(NCC2CCOCC2)c([N+](=O)[O-])c1)c1ccc(N2CC3(CCN(C4CCCc5ccccc54)C3)C2)cc1Oc1cnc2[nH]ccc2c1 (centres unmarked) [Compound 91, 2-((1H-pyrrolo[2,3-b]pyridin-5-yl)oxy)-N-((3-nitro-4-(((tetrahydro-2H-pyran-4-yl)methyl)amino)phenyl)sulfonyl)-4-(6-(1,2,3,4-tetrahydronaphthalen-1-yl)-2,6-diazaspiro[3.4]octan-2-yl)benzamide] | < 20 | 500 to 5000
3 | O=C(NS(=O)(=O)c1ccc(NCC2CCOCC2)c([N+](=O)[O-])c1)c1ccc(N2CC3(CCN(C4CCCc5ccccc54)CC3)C2)cc1Oc1cnc2[nH]ccc2c1 (centres unmarked) [Compound 92, 2-((1H-pyrrolo[2,3-b]pyridin-5-yl)oxy)-N-((3-nitro-4-(((tetrahydro-2H-pyran-4-yl)methyl)amino)phenyl)sulfonyl)-4-(7-(1,2,3,4-tetrahydronaphthalen-1-yl)-2,7-diazaspiro[3.5]nonan-2-yl)benzamide] | 20 to 200 | 500 to 5000
4 | O=C(NS(=O)(=O)c1ccc(NCC2CCOCC2)c([N+](=O)[O-])c1)c1ccc(N2CCC3(CC2)CN(C2CCCCc4ccccc42)C3)cc1Oc1cnc2[nH]ccc2c1 (centres unmarked) [Compound 93, 2-((1H-pyrrolo[2,3-b]pyridin-5-yl)oxy)-N-((3-nitro-4-(((tetrahydro-2H-pyran-4-yl)methyl)amino)phenyl)sulfonyl)-4-(2-(6,7,8,9-tetrahydro-5H-benzo[7]annulen-5-yl)-2,7-diazaspiro[3.5]nonan-7-yl)benzamide] | 20 to 200 | 500 to 5000
5 | O=C(NS(=O)(=O)c1ccc(NCC2CCOCC2)c([N+](=O)[O-])c1)c1ccc(N2CC3(C2)CN(C2CCCCc4ccccc42)C3)cc1Oc1cnc2[nH]ccc2c1 (centres unmarked) [Compound 95, 2-((1H-pyrrolo[2,3-b]pyridin-5-yl)oxy)-N-((3-nitro-4-(((tetrahydro-2H-pyran-4-yl)methyl)amino)phenyl)sulfonyl)-4-(6-(6,7,8,9-tetrahydro-5H-benzo[7]annulen-5-yl)-2,6-diazaspiro[3.3]heptan-2-yl)benzamide] | 20 to 200 | 500 to 5000
6 | O=C(NS(=O)(=O)c1ccc(NCC2CCOCC2)c([N+](=O)[O-])c1)c1ccc(N2CC3(C2)CN(C2CCCc4ccccc42)C3)cc1Oc1cnc2[nH]ccc2c1 (centres unmarked) [Compound 96, 2-((1H-pyrrolo[2,3-b]pyridin-5-yl)oxy)-N-((3-nitro-4-(((tetrahydro-2H-pyran-4-yl)methyl)amino)phenyl)sulfonyl)-4-(6-(1,2,3,4-tetrahydronaphthalen-1-yl)-2,6-diazaspiro[3.3]heptan-2-yl)benzamide] | 20 to 200 | > 5000
7 | O=C(NS(=O)(=O)c1ccc(NCC2CCOCC2)c([N+](=O)[O-])c1)c1ccc(N2CC3(CCN(C4CCCCc5ccccc54)CC3)C2)cc1Oc1cnc2[nH]ccc2c1 (centres unmarked) [Compound 97, 2-((1H-pyrrolo[2,3-b]pyridin-5-yl)oxy)-N-((3-nitro-4-(((tetrahydro-2H-pyran-4-yl)methyl)amino)phenyl)sulfonyl)-4-(7-(6,7,8,9-tetrahydro-5H-benzo[7]annulen-5-yl)-2,7-diazaspiro[3.5]nonan-2-yl)benzamide] | 20 to 200 | 500 to 5000
8 | O=C(NS(=O)(=O)c1ccc(NCC2CCOCC2)c([N+](=O)[O-])c1)c1ccc(N2CC3(CCN(C4CCCCc5ccccc54)C3)C2)cc1Oc1cnc2[nH]ccc2c1 (centres unmarked) [Compound 98, 2-((1H-pyrrolo[2,3-b]pyridin-5-yl)oxy)-N-((3-nitro-4-(((tetrahydro-2H-pyran-4-yl)methyl)amino)phenyl)sulfonyl)-4-(6-(6,7,8,9-tetrahydro-5H-benzo[7]annulen-5-yl)-2,6-diazaspiro[3.4]octan-2-yl)benzamide] | 20 to 200 | 500 to 5000
9 | CC(C)(C)OC(=O)N1CC2CC1CC2CNc1ccc(S(=O)(=O)NC(=O)c2ccc(N3CCN([C@@H]4CCCCc5c(Cl)cccc54)CC3)cc2Oc2cnc3[nH]ccc3c2)cc1[N+](=O)[O-] (stereo partly drawn) [Compound 103, tert-butyl 5-(((4-(N-(2-((1H-pyrrolo[2,3-b]pyridin-5-yl)oxy)-4-(4-((R)-1-chloro-6,7,8,9-tetrahydro-5H-benzo[7]annulen-5-yl)piperazin-1-yl)benzoyl)sulfamoyl)-2-nitrophenyl)amino)methyl)-2-azabicyclo[2.2.1]heptane-2-carboxylate] | < 20 | 50 to 500
10 | O=C(NS(=O)(=O)c1ccc(NCC2CC3CC2CN3)c([N+](=O)[O-])c1)c1ccc(N2CCN([C@@H]3CCCCc4c(Cl)cccc43)CC2)cc1Oc1cnc2[nH]ccc2c1 (stereo partly drawn) [Compound 105, 2-((1H-pyrrolo[2,3-b]pyridin-5-yl)oxy)-N-((4-(((2-azabicyclo[2.2.1]heptan-5-yl)methyl)amino)-3-nitrophenyl)sulfonyl)-4-(4-((R)-1-chloro-6,7,8,9-tetrahydro-5H-benzo[7]annulen-5-yl)piperazin-1-yl)benzamide] | < 20 | 50 to 500
11 | O=C(O)CCN1CCC2(CC1)CC(CNc1ccc(S(=O)(=O)NC(=O)c3ccc(N4CCN([C@@H]5CCCCc6c(Cl)cccc65)CC4)cc3Oc3cnc4[nH]ccc4c3)cc1[N+](=O)[O-])C2 [Compound 126, (R)-3-(2-(((4-(N-(2-((1H-pyrrolo[2,3-b]pyridin-5-yl)oxy)-4-(4-(1-chloro-6,7,8,9-tetrahydro-5H-benzo[7]annulen-5-yl)piperazin-1-yl)benzoyl)sulfamoyl)-2-nitrophenyl)amino)methyl)-7-azaspiro[3.5]nonan-7-yl)propanoic acid] | < 20 | < 50
12 | O=C(NS(=O)(=O)c1ccc(NCC2CC3(CCN(S(=O)(=O)C4CC4)CC3)C2)c([N+](=O)[O-])c1)c1ccc(N2CCN([C@@H]3CCCCc4c(Cl)cccc43)CC2)cc1Oc1cnc2[nH]ccc2c1 [Compound 127, (R)-2-((1H-pyrrolo[2,3-b]pyridin-5-yl)oxy)-4-(4-(1-chloro-6,7,8,9-tetrahydro-5H-benzo[7]annulen-5-y1)piperazin-1-yl)-N-((4-(((7-(cyclopropylsulfonyl)-7-azaspiro[3.5]nonan-2-yl)methyl)amino)-3-nitrophenyl)sulfonyl)benzamide] | < 20 | < 50
13 | CC(C)S(=O)(=O)N1CCC2(CC1)CC(CNc1ccc(S(=O)(=O)NC(=O)c3ccc(N4CCN([C@@H]5CCCCc6c(Cl)cccc65)CC4)cc3Oc3cnc4[nH]ccc4c3)cc1[N+](=O)[O-])C2 [Compound 128, (R)-2-((1H-pyrrolo[2,3-b]pyridin-5-yl)oxy)-4-(4-(1-chloro-6,7,8,9-tetrahydro-5H-benzo[7]annulen-5-yl)piperazin-1-yl)-N-((4-(((7-(isopropylsulfony1)-7-azaspiro[3.5]nonan-2-yl)methyl)amino)-3-nitrophenyl)sulfony1)benzamide] | < 20 | < 50
14 | O=C(NS(=O)(=O)c1ccc(NCC2CC3(CCCCC3)C2)c([N+](=O)[O-])c1)c1ccc(N2CCN([C@@H]3CCCCc4c(Cl)cccc43)CC2)cc1Oc1cnc2[nH]ccc2c1 [Compound 132, (R)-2-((1H-pyrrolo[2,3-b]pyridin-5-yl)oxy)-4-(4-(1-chloro-6,7,8,9-tetrahydro-5H-benzo[7]annulen-5-yl)piperazin-1-yl)-N-((3-nitro-4-((spiro[3.5]nonan-2-ylmethyl)amino)phenyl)sulfonyl)benzamide] | < 20 | 50 to 500
15 | O=C(NS(=O)(=O)c1ccc(NCC2CC3(CCC4(CC3)OCCO4)C2)c([N+](=O)[O-])c1)c1ccc(N2CCN([C@@H]3CCCCc4c(Cl)cccc43)CC2)cc1Oc1cnc2[nH]ccc2c1 [Compound 133, (R)-2-((1H-pyrrolo[2,3-b]pyridin-5-yl)oxy)-N-((4-(((8,11-dioxadispiro[3.2.47.24]tridecan-2-yl)methyl)amino)-3-nitrophenyl)sulfony1)-4-(4-(1-chloro-6,7,8,9-tetrahydro-5H-benzo[7]annulen-5-yl)piperazin-1-yl)benzamide] | < 20 | < 50
16 | O=C(NS(=O)(=O)c1ccc(NCC2CC3(CCC(O)CC3)C2)c([N+](=O)[O-])c1)c1ccc(N2CCN([C@@H]3CCCCc4c(Cl)cccc43)CC2)cc1Oc1cnc2[nH]ccc2c1 (stereo partly drawn) [Compound 134, (R)-2-((1H-pyrrolo[2,3-b]pyridin-5-yl)oxy)-4-(4-(1-chloro-6,7,8,9-tetrahydro-5H-benzo[7]annulen-5-yl)piperazin-1-yl)-N-((4-(((7-hydroxyspiro[3.5]nonan-2-yl)methyl)amino)-3-nitrophenyl)sulfonyl)benzamide] | < 20 | < 50
